Literature values in patent US20110318267A1, “PH-RESPONSIVE NANOSTRUCTURES” (PRESIDENT AND FELLOWS OF HARVARD COLLEGE, priority 2008, published 2011).

C=C(C)C(=O)OCCN(C)C [DMAEMA, dimethylaminoethyl methacrylate]
pKa: 7.5
